In patent US20160256515A1, “COMPOSITIONS AND METHODS FOR PREDICTION AND TREATMENT OF HUMAN CYTOMEGALOVIRUS INFECTIONS” (THE JOHNS HOPKINS UNIVERSITY, priority 2013, published 2016):
Like-named read-outs stand apart in the source and are kept apart here.

Tests used:
[1] = system: IFN-β; test: IFN-β response (qPCR, ELISA) after pretreatment and CMV infection; type: cell-based, human
From the text: RNA isolation and real time quantitative reverse transcriptase (qRT) PCR: Total RNA was isolated from cultured cells using RNeasy Mini kit (Qiagen, Georgetown, Md.) according to manufacturer's instructions. RevertAid first strand cDNA synthesis kit (Fermentas life sciences, Cromwell Park, Md.) was used to synthesize first strand cDNA from total RNA using oligo-dT primers. Negative reverse-transcriptase (−RT) reactions were included to ensure the specificity of qRT-PCR reactions. Synthesis of first strand cDNA from mRNA template was carried out at 42° C. for 1 h. Quantitative RT-PCR (qRT-PCR) was performed using specific primers and SYBER green (Fermentas life science) with two-step cycling protocol (95° C. for 15 s, 60° C. for 1 min). Reactions were performed in triplicates and GAPDH was used as internal control. mRNA levels in HCMV-infected cells were normalized to the mRNA produced in non-infected HFFs in addition to the internal normalization of each sample to GAPDH. The primers and gene targets appear in Table 1.
ELISA: Human interferon β (IFN-β) specific ELISA kit (PBL Interferon Source) was used to measure levels of secreted IFN-β from HFF-control and HFF-NOD2 overexpressing cells according to manufacturer's instructions.

[2] = system: human CMV (HCMV); test: CMV plaque numbers in human fibroblasts after pre-treatment; type: cell-based, human cytomegalovirus; details: pre-treatment of human fibroblasts followed by CMV infection
[3] = system: NOD2 mRNA; type: cell-based, human; details: non-infected HFFs, MDP 10 μg/ml

SMILES | interferon response (IFN-β) ([1]; pretreatment) | mRNA and protein expression of IFN-β ([1]; pretreatment followed by CMV infection, qPCR and ELISA) | IFN-β responses in NOD2 KD cells ([1]; treatment in NOD2 KD cells) | plaque numbers [2] | induction of NOD2 expression ([3]; 12 h) | induction of NOD2 expression ([3]; 72 h) [fold]
C[C@H](N)C(=O)N[C@H](CCC(=O)NC(CCCC(N)C(=O)O)C(=O)O)C(=O)O (stereo partly drawn) [tri-DAP, L-Ala-γ-D-Glu-mDAP] | enhanced | increased | can initiate independent IFN-β responses | significant reduction |  | 
CC(=O)N[C@H]1C(O)O[C@H](CO)[C@@H](O)[C@@H]1O[C@H](C)C(=O)N[C@@H](C)C(=O)N[C@H](CCC(=O)O)C(N)=O (mixture of isomers) [MDP, muramyl dipeptide] |  |  |  |  | two fold | 1400
